Measured values reported in patent US20240409536A1, “COMPOUNDS AND METHODS FOR MODULATING SPLICING” (REMIX THERAPEUTICS INC., priority 2021, published 2024).

Assays:
HTT mRNA = experiment: Gene panel canonical junction qPCR assay, HTT CJ mRNA decrease; format: cell-based, human; settings: Homo sapiens, canonical junction qPCR, read-out: HTT IC50 (decrease in CJ mRNA levels)
How it was run: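 A673 or K562 cells were treated with compound, and lysates underwent cDNA synthesis and qPCR with a CY5 5′-nuclease probe or primer spanning the canonical exon junction. ΔCt versus GAPDH, GUSB or PPIA was normalized to DMSO (2^(−ΔΔCt)), converted to percentage response and fitted four-parameter logistic for IC50.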

MYB mRNA = experiment: Splicing RT-qPCR assay, MYB canonical (CJ) and alternative (AJ) junction mRNA; format: cell-based; settings: Homo sapiens, A673 or K562 cells, 24 hours; for IC50: decrease in canonical junction mRNA; for AC50: increase in alternative junction mRNA
How it was run: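 Housekeeping-normalized RT-qPCR of canonical and alternative junctions in lysates of A673 or K562 cells exposed 24 h to compound (11 points, 3-fold steps, max 10 uM).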

Compound	IC50 (HTT mRNA)	IC50 (MYB mRNA)	AC50 (MYB mRNA)
CNC1CCN(c2ccc(C(=O)Nc3cc(F)c4nc(C)cn4c3)c3ncc(OC)nc23)C1 (stereo in doubt) [Compound 227, (R)—N-(8-fluoro-2-methylimidazo[1,2-a]pyridin-6-yl)-2-methoxy-8-(3-(methylamino)pyrrolidin-1-yl)quinoxaline-5-carboxamide 2,2,2-trifluoroacetate]	> 10 µM	1 to 10 µM	1 to 10 µM
Cc1cn2cc(NC(=O)c3ccc(N4CCC(NC(C)(C)C)C4)c4ccnnc34)cc(F)c2n1 (centres unmarked) [Compound 109]	1 to 10 µM	1 to 10 µM	1 to 10 µM
Cc1cnc2c(C(=O)Nc3cc(F)c4nc(C)cn4c3)ccc(N3C[C@@H](C)N[C@@H](C)C3)c2n1 [Compound 217, 8-((3R,5S)-3,5-dimethylpiperazin-1-yl)-N-{8-fluoro-2-methylimidazo[1,2-a]pyridin-6-yl}-2-methylquinoxaline-5-carboxamide]		< 0.1 µM	< 0.1 µM
CCNC1CCN(c2ccc(C(=O)Nc3cc(F)c4nc(C)cn4c3)c3nc(C)ccc23)CC1 [Compound 228, 5-[4-(ethylamino)piperidin-1-yl]-N-{8-fluoro-2-methylimidazo[1,2-a]pyridin-6-yl}-2-methylquinoline-8-carboxamide]	0.1 to 1 µM	< 0.1 µM	0.1 to 1 µM
COCCOc1ccc2c(N3CCC(N(C)C)CC3)ccc(C(=O)Nc3cc(F)c4nc(C)cn4c3)c2n1 [Compound 229, 5-[4-(dimethylamino)piperidin-1-yl]-N-{8-fluoro-2-methylimidazo[1,2-a]pyridin-6-yl}-2-(2-methoxyethoxy)quinoline-8-carboxamide]	> 10 µM	0.1 to 1 µM	< 0.1 µM
Cc1cn2cc(NCc3ccc(N4CCNCC4)c4ccnnc34)cc(F)c2n1 [Compound 230, 8-fluoro-2-methyl-N-{[5-(piperazin-1-yl)cinnolin-8-yl]methyl}imidazo[1,2-a]pyridin-6-amine]	1 to 10 µM	> 10 µM	> 10 µM
CNC1CCN(c2ccc(C(=O)Nc3cc(F)c4nc(C)cn4c3)c3nnccc23)C1 (centres unmarked) [Compound 231, N-{8-fluoro-2-methylimidazo[1,2-a]pyridin-6-yl}-5-[3-(methylamino)pyrrolidin-1-yl] cinnoline-8-carboxamide]	1 to 10 µM	< 0.1 µM	< 0.1 µM
COCCOc1ccc2c(N3C[C@@H](C)N[C@@H](C)C3)ccc(C(=O)Nc3cc(F)c4nc(C)cn4c3)c2n1 [Compound 232, 5-[(3R,5S)-3,5-dimethylpiperazin-1-yl]-N-{8-fluoro-2-methylimidazo[1,2-a]pyridin-6-yl}-2-(2-methoxyethoxy)quinoline-8-carboxamide]	1 to 10 µM	0.1 to 1 µM	0.1 to 1 µM
CCNC1CCN(c2ccc(C(=O)Nc3cc(F)c4nc(C)cn4c3)c3nc(OCCOC)ccc23)CC1 [Compound 233, 5-[4-(ethylamino)piperidin-1-yl]-N-{8-fluoro-2-methylimidazo[1,2-a]pyridin-6-yl}-2-(2-methoxyethoxy)quinoline-8-carboxamide]	1 to 10 µM	0.1 to 1 µM	0.1 to 1 µM
